Measured values from ChEMBL document CHEMBL1140777, “3,4-Diamino-2,5-thiadiazole-1-oxides as potent CXCR2/CXCR1 antagonists” (Bioorg Med Chem Lett, 2008).

Tests used:
[1] = target: T1, Interleukin-8 receptors, CXCR1/CXCR2 (Homo sapiens, UniProt P25025+P25024); assay: Antagonist activity at CXCR1/CXCR2 in human PMN cells assessed as inhibition of GROalpha-mediated myeloperoxidase release; type: functional, cell-based
T1 sequence (P25025 whole entry): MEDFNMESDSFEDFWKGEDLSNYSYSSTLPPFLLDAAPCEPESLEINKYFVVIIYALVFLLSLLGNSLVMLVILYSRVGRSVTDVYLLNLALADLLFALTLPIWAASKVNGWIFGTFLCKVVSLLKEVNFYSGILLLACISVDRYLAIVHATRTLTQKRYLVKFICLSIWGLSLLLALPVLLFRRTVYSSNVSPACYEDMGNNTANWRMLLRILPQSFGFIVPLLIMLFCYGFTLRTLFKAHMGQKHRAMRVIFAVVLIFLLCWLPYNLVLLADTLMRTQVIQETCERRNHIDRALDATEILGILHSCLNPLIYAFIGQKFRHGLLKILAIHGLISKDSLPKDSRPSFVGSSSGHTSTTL
T1 sequence (P25024 whole entry): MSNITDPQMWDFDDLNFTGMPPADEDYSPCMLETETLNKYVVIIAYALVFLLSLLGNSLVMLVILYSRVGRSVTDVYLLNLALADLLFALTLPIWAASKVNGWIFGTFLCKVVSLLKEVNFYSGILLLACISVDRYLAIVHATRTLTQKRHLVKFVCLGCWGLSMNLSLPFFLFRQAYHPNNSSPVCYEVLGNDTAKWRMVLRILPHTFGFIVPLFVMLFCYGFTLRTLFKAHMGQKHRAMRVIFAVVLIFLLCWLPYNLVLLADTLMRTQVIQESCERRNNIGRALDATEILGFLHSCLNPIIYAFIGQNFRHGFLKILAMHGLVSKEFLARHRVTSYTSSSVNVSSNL

[2] = Drug level in po dosed rat blood; type: ADME, organism-based; settings: read-out: Activity
[3] = target: T1, Interleukin-8 receptors, CXCR1/CXCR2; assay: Antagonist activity at CXCR1/CXCR2 in human PMN cells assessed as inhibition of IL8-mediated myeloperoxidase release; type: functional, cell-based
[4] = target: T2, C-X-C chemokine receptor type 2 (Homo sapiens, UniProt P25025); assay: Binding affinity to CXCR2
T2 sequence (P25025 whole entry): T1 sequence (P25025 whole entry)

[5] = target: T3, C-X-C chemokine receptor type 1 (Homo sapiens, UniProt P25024); assay: Binding affinity to CXCR1
T3 sequence (P25024 whole entry): T1 sequence (P25024 whole entry)

[6] = target: Interleukin-8 receptors, CXCR1/CXCR2 (Homo sapiens) (UniProt P25025+P25024); assay: Antagonist activity at CXCR1/CXCR2 in human PMN cells assessed as inhibition of GROalpha-mediated myeloperoxidase release at 1 uM; type: functional, cell-based; parameters: scale not given: the % may be the effect or the level left

Row | Structure (SMILES) | IC50 [1] [nM] | AUC [2] [µM·h] | IC50 [3] [nM] | Ki [4] [nM] | Ki [5] [nM] | Activity [6] [%]
1 | Cc1cc([C@H](Nc2n[s+]([O-])nc2Nc2cccc(C(=O)N(C)C)c2O)C(C)C)oc1C (stereo not given in full) | 13 | 119 | 54 |  |  | 
2 | CC[C@@H](Nc1n[s+]([O-])nc1Nc1cccc(C(=O)N(C)C)c1O)c1ccccc1 (stereo not given in full) | 331 |  |  | 5 | 1220 | 
3 | CC[C@@H](NC1=NS(=O)(=O)NC1=Nc1cccc(C(=O)N(C)C)c1O)c1ccc2c(c1)OCCN2C |  |  |  | 9 | 2800 | 
4 | CC(C)[C@@H](Nc1n[s+]([O-])nc1Nc1cccc(C(=O)N(C)C)c1O)c1cccc(F)c1 (stereo not given in full) |  |  |  | 8 | 4010 | 
5 | C[C@H](Nc1n[s+]([O-])nc1Nc1cccc(C(=O)N(C)C)c1O)C(C)(C)C (stereo not given in full) | 38 | 5.28 | 684 | 58 | 484 | 
6 | Cc1ccc([C@H](Nc2n[s+]([O-])nc2Nc2cccc(C(=O)N(C)C)c2O)C(C)(C)C)o1 (stereo not given in full) | 27 |  | 80 | 5 | 38 | 
7 | CN(C)C(=O)c1cccc(NC2=NS(=O)(=O)N=C2N[C@@H](c2ccc(Cl)o2)C(C)(C)C)c1O |  |  |  | 9 | 129 | 
8 | CN(C)C(=O)c1cccc(Nc2n[s+]([O-])nc2NCc2ccc3c(c2)OCO3)c1O (stereo not given) |  |  |  | 15 | 10000 | 
9 | CN(C)C(=O)c1cccc(Nc2n[s+]([O-])nc2N[C@@H](c2ccco2)C(C)(C)C)c1O (stereo not given in full) | 8 |  | 20 | 2.3 | 21 | 
10 | CN(C)C(=O)c1cccc(N=C2NS(=O)(=O)N=C2N[C@@H](c2ccc3c(c2)OCCO3)C(C)(C)C)c1O |  | 1.87 |  | 24 | 2000 | 
11 | CC(C)[C@@H](NC1=NS(=O)(=O)N=C1Nc1cccc(C(=O)N(C)C)c1O)c1cccc(F)c1 |  |  |  | 11 | 652 | 
12 | CN(C)C(=O)c1cccc(Nc2n[s+]([O-])nc2N[C@@H](c2ccccc2)C(C)(C)C)c1O (stereo not given in full) | 28 |  | 142 | 4 | 130 | 
13 | Cc1ccc([C@H](NC2=NS(=O)(=O)N=C2Nc2cccc(C(=O)N(C)C)c2O)C2(C)CC2)o1 |  |  |  | 184 | 1100 | -11
14 | CC[C@@H](NC1=NS(=O)(=O)N=C1Nc1cccc(C(=O)N(C)C)c1O)c1ccc(C)o1 |  |  |  |  | 5950 | 
15 | CN(C)C(=O)c1cccc(Nc2n[s+]([O-])nc2N[C@@H](c2ccco2)C2(C)CC2)c1O (stereo not given in full) | 132 |  | 400 | 12 | 375 | 
16 | CC[C@@H](Nc1n[s+]([O-])nc1Nc1cccc(C(=O)N(C)C)c1O)c1ccc(C)o1 (stereo not given in full) | 133 |  | 539 | 3 | 234 | 
17 | CCC(C)(C)[C@@H](NC1=NS(=O)(=O)N=C1Nc1cccc(C(=O)N(C)C)c1O)c1ccco1 |  |  |  | 16 | 188 | -19
18 | CN(C)C(=O)c1cccc(NC2=NS(=O)(=O)N=C2N[C@@H](c2ccco2)C(C)(C)C)c1O |  |  |  | 11 | 61 | 3
19 | CC[C@@H](NC1=NS(=O)(=O)N=C1Nc1cccc(C(=O)N(C)C)c1O)c1ccccc1 |  | 2.3 | 8990 |  | 8990 | -39
20 | CN(C)C(=O)c1cccc(NC2=NS(=O)(=O)N=C2N[C@@H](c2ccc3c(c2)OCO3)C(C)(C)C)c1O |  |  |  | 4.7 | 46 | 
21 | CN(C)C(=O)c1cccc(NC2=NS(=O)(=O)N=C2N[C@@H](c2ccc3c(c2)OCCO3)C(C)(C)C)c1O |  |  |  |  |  | -12
22 | CC[C@@H](Nc1n[s+]([O-])nc1Nc1cccc(C(=O)N(C)C)c1O)c1cc(C(C)C)co1 (stereo not given in full) | 8 |  | 15 | 9 | 61 | 
